Laboratory results from PubChem BioAssay (NCI).
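Results reflect a 48-hour exposure of cells in 96-well plates to compound at five concentrations. The concentration for full growth arrest is given as TGI.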

Legend:
Assay in all cases: inhibition of tumour cell growth, NCI panel, 48 h
[1] = test system: DU-145 prostate
[2] = test system: HCT-15 colon
[3] = test system: T-47D breast
[4] = test system: COLO 205 colon
[5] = test system: K-562 leukemia
[6] = test system: OVCAR-8 ovarian
[7] = test system: PC-3 prostate
[8] = test system: 786-0 renal
[9] = test system: CCRF-CEM leukemia
[10] = test system: SF-295 CNS
[11] = test system: BT-549 breast
[12] = test system: HS 578T breast
[13] = test system: SNB-19 CNS
[14] = test system: SK-MEL-28 melanoma
[15] = test system: MDA-MB-231 breast
[16] = test system: A498 renal
[17] = test system: HOP-92 NSCLC
[18] = test system: OVCAR-5 ovarian
[19] = test system: SK-OV-3 ovarian
[20] = test system: OVCAR-3 ovarian
[21] = test system: UACC-62 melanoma
[22] = test system: SK-MEL-5 melanoma
[23] = test system: U251 CNS
[24] = test system: HCT-116 colon
[25] = test system: KM12 colon
[26] = test system: NCI-H460 lung
[27] = test system: EKVX NSCLC
[28] = test system: MCF7 breast
[29] = test system: ACHN renal
[30] = test system: HOP-62 NSCLC
[31] = test system: MALME-3M melanoma
[32] = test system: MDA-MB-435
[33] = test system: CAKI-1 renal
[34] = test system: MOLT-4 leukemia
[35] = test system: SK-MEL-2 melanoma
[36] = test system: MDA-N
[37] = test system: A549 NSCLC
[38] = test system: TK-10 renal
[39] = test system: SN12C renal
[40] = test system: M14 melanoma
[41] = test system: IGROV1 ovarian
[42] = test system: UO-31 renal
[43] = test system: RPMI-8226 leukemia
[44] = test system: NCI-H522 lung
[45] = test system: LOX IMVI melanoma
[46] = test system: SF-539 CNS
[47] = test system: NCI-H23 lung
[48] = test system: HL-60(TB) leukemia
[49] = test system: OVCAR-4 ovarian
[50] = test system: HT29 colon
[51] = test system: NCI/ADR-RES ovarian
[52] = test system: NCI-H226 lung
[53] = test system: SNB-75 CNS
[54] = test system: SW-620 colon
[55] = test system: HCC-2998 colon
[56] = test system: UACC-257 melanoma
[57] = test system: RXF 393 renal
[58] = test system: SF-268 CNS

Measured: TGI

CCOC(=O)C1(NC(=O)OC(C)(C)C)CCc2[nH]oc(=O)c2C1 (stereo not given)
> 100 µM: [1] | [2] | [3] | [4] | [5] | [6] | [7] | [8] | [9] | [10] | [11] | [12] | [13] | [14] | [15] | [16] | [17] | [18] | [19] | [20] | [21] | [22] | [23] | [24] | [25] | [26] | [27] | [28] | [29] | [30] | [31] | [32] | [33] | [34] | [35] | [36] | [37] | [38] | [39] | [40] | [41] | [42] | [43] | [44] | [45] | [46] | [47] | [48] | [49] | [50] | [51] | [52] | [53] | [54] | [55] | [56]

N=c1sc(N2CCOCC2)nn1CC(=O)c1ccccc1
> 100 µM: [1] | [2] | [3] | [4] | [5] | [6] | [7] | [57] | [8] | [9] | [10] | [11] | [12] | [13] | [14] | [15] | [18] | [19] | [20] | [21] | [22] | [23] | [24] | [25] | [26] | [27] | [28] | [29] | [30] | [31] | [32] | [33] | [34] | [35] | [36] | [37] | [38] | [39] | [40] | [41] | [42] | [43] | [58] | [44] | [47] | [48] | [49] | [50] | [51] | [52] | [53] | [54] | [55] | [56]
